{"source": "ChEMBL document CHEMBL4371038", "about": "“Synthesis and biological evaluation of novel 1-substituted 3-(3-phenoxyprop-1-yn-1-yl)-1H-pyrazolo[3,4-d]pyrimidin-4-amines as potent Bruton's tyrosine kinase (BTK) inhibitors” (Bioorg Med Chem Lett, 2019)", "key": {"[1]": {"biological_target": "T1, Tyrosine-protein kinase BTK (Homo sapiens, UniProt Q06187)", "T1 sequence (Q06187 whole entry, the tested form may be a part)": "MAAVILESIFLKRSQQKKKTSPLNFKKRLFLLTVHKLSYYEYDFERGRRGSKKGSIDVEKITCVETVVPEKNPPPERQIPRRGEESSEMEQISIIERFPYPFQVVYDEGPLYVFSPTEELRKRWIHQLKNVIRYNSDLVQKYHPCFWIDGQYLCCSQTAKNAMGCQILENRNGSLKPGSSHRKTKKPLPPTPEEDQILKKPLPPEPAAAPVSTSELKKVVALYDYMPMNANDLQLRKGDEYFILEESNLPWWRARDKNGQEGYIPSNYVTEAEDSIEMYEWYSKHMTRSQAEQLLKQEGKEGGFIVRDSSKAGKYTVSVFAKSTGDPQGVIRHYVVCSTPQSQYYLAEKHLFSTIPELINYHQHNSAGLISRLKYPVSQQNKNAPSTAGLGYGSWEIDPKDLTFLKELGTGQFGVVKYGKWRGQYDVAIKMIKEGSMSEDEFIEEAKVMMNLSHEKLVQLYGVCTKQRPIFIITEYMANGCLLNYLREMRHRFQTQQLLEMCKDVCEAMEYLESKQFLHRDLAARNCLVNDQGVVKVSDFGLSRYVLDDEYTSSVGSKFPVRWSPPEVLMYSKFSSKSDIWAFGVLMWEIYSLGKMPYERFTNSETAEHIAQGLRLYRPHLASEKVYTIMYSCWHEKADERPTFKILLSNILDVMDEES", "test": "Inhibition of recombinant full-length human N-terminal GST-fused BTK (2 to 659 residues) expressed in baculovirus expression system at 1 uM using biotin-labelled peptide as substrate measured after 50 mins by TR-FRET assay relative to control"}, "[2]": {"biological_target": "T1, Tyrosine-protein kinase BTK", "test": "Inhibition of recombinant full-length human N-terminal GST-fused BTK (2 to 659 residues) expressed in baculovirus expression system using biotin-labelled peptide as substrate measured after 50 mins by TR-FRET assay"}, "Ramos": {"tested_on": "Ramos", "test": "Antiproliferative activity against human Ramos cells after 48 hrs by CCK8 assay", "format": "functional, cell-based"}, "Raji": {"tested_on": "Raji", "test": "Antiproliferative activity against human Raji cells after 48 hrs by CCK8 assay", "format": "functional, cell-based"}, "DOHH-2": {"tested_on": "DOHH-2", "test": "Antiproliferative activity against human DOHH2 cells after 72 hrs by CellTiter-Glo luminescent cell viability assay", "format": "functional, cell-based", "settings": "DOHH-2, 72 h"}, "[3]": {"test": "Antiproliferative activity against human Mino cells after 72 hrs by CellTiter-Glo luminescent cell viability assay", "format": "functional, cell-based"}, "SU-DHL-6": {"tested_on": "SU-DHL-6", "test": "Antiproliferative activity against human SU-DHL6 cells after 72 hrs by CellTiter-Glo luminescent cell viability assay", "format": "functional, cell-based", "settings": "SU-DHL-6, 72 h"}, "[4]": {"test": "Antiproliferative activity against human WSU-DLCL2 cells after 72 hrs by CellTiter-Glo luminescent cell viability assay", "format": "functional, cell-based", "settings": "WSUDLCL2, 72 h"}, "PBMC": {"tested_on": "PBMC", "test": "Cytotoxicity against human PBMC after 72 hrs by CellTiter-Glo luminescent cell viability assay", "format": "cell-based"}, "[5]": {"test": "Cytotoxicity against human PBMC assessed as inhibition of cell proliferation at 30 uM after 72 hrs by CellTiter-Glo luminescent cell viability assay relative to control", "format": "cell-based", "settings": "PBMC (peripheral blood mononuclear cells)"}}, "data": [{"smiles": "C=CC(=O)N1CCC[C@H]1Cn1nc(C#CCOc2ccccc2)c2c(N)ncnc21", "values": [{"measurement": "inhibition", "setting": "[1]", "value": 42.9, "unit": "%"}]}, {"smiles": "C=CC(=O)N(C)CCn1nc(C#CCOc2ccccc2)c2c(N)ncnc21", "values": [{"measurement": "inhibition", "setting": "[1]", "value": 48.5, "unit": "%"}]}, {"smiles": "N#C/C(=C\\C1CC1)C(=O)N1CCC[C@@H](n2nc(C#CCOc3ccccc3)c3c(N)ncnc32)C1", "values": [{"measurement": "inhibition", "setting": "[1]", "value": 97.1, "unit": "%"}, {"measurement": "IC50", "setting": "[2]", "value": 11.1, "unit": "nM"}, {"measurement": "IC50", "setting": "Ramos", "value": 9060, "unit": "nM"}, {"measurement": "IC50", "setting": "Raji", "value": 2090, "unit": "nM"}, {"measurement": "IC50", "setting": "DOHH-2", "value": "> 10000", "unit": "nM"}, {"measurement": "IC50", "setting": "[3]", "value": 8850, "unit": "nM"}, {"measurement": "IC50", "setting": "SU-DHL-6", "value": "> 10000", "unit": "nM"}, {"measurement": "IC50", "setting": "[4]", "value": "> 10000", "unit": "nM"}, {"measurement": "IC50", "setting": "PBMC", "value": "> 30000", "unit": "nM"}]}, {"smiles": "C=CC(=O)NCCn1nc(C#CCOc2ccccc2)c2c(N)ncnc21", "values": [{"measurement": "inhibition", "setting": "[1]", "value": 27.1, "unit": "%"}]}, {"smiles": "C=CC(=O)N1CCC[C@@H](n2nc(-c3ccc(Oc4ccccc4)cc3)c3c(N)ncnc32)C1", "note": "[IBRUTINIB]", "values": [{"measurement": "IC50", "setting": "DOHH-2", "value": 33.4, "unit": "nM"}, {"measurement": "IC50", "setting": "[3]", "value": 3150, "unit": "nM"}, {"measurement": "IC50", "setting": "SU-DHL-6", "value": 874, "unit": "nM"}, {"measurement": "IC50", "setting": "[4]", "value": 487, "unit": "nM"}, {"measurement": "inhibition at 72 h, 30 µM", "setting": "[5]", "value": 69, "unit": "%"}]}, {"smiles": "C=CC(=O)N1CC[C@@H](n2nc(C#CCOc3ccccc3)c3c(N)ncnc32)C1", "values": [{"measurement": "inhibition", "setting": "[1]", "value": 96.1, "unit": "%"}, {"measurement": "IC50", "setting": "[2]", "value": 18.8, "unit": "nM"}]}, {"smiles": "C=C(F)C(=O)N1CCC[C@@H](n2nc(C#CCOc3ccccc3)c3c(N)ncnc32)C1", "values": [{"measurement": "inhibition", "setting": "[1]", "value": 73.8, "unit": "%"}]}, {"smiles": "C=CC(=O)N[C@H]1CC[C@@H](n2nc(C#CCOc3ccccc3)c3c(N)ncnc32)CC1", "values": [{"measurement": "inhibition", "setting": "[1]", "value": 101, "unit": "%"}, {"measurement": "IC50", "setting": "[2]", "value": 14.8, "unit": "nM"}]}, {"smiles": "Nc1ncnc2c1c(C#CCOc1ccccc1)nn2[C@@H]1CCCN(C(=O)/C=C/CBr)C1", "values": [{"measurement": "inhibition", "setting": "[1]", "value": 92.2, "unit": "%"}, {"measurement": "IC50", "setting": "[2]", "value": 13.2, "unit": "nM"}]}, {"smiles": "CC#CC(=O)N1CCC[C@@H](n2nc(C#CCOc3ccccc3)c3c(N)ncnc32)C1", "values": [{"measurement": "inhibition", "setting": "[1]", "value": 99.7, "unit": "%"}, {"measurement": "IC50", "setting": "[2]", "value": 28.3, "unit": "nM"}]}, {"smiles": "C/C=C(\\C#N)C(=O)N1CCC[C@@H](n2nc(C#CCOc3ccccc3)c3c(N)ncnc32)C1", "values": [{"measurement": "inhibition", "setting": "[1]", "value": 98.5, "unit": "%"}, {"measurement": "IC50", "setting": "[2]", "value": 7.8, "unit": "nM"}, {"measurement": "IC50", "setting": "Ramos", "value": 25800, "unit": "nM"}, {"measurement": "IC50", "setting": "Raji", "value": 17600, "unit": "nM"}]}, {"smiles": "CC(C)/C=C(\\C#N)C(=O)N1CCC[C@@H](n2nc(C#CCOc3ccccc3)c3c(N)ncnc32)C1", "values": [{"measurement": "inhibition", "setting": "[1]", "value": 99.6, "unit": "%"}, {"measurement": "IC50", "setting": "[2]", "value": 9.7, "unit": "nM"}, {"measurement": "IC50", "setting": "Ramos", "value": "> 40000", "unit": "nM"}, {"measurement": "IC50", "setting": "Raji", "value": "> 40000", "unit": "nM"}]}, {"smiles": "C=CC(=O)N1CCC[C@@H](n2nc(C#CCOc3ccccc3)c3c(N)ncnc32)C1", "values": [{"measurement": "IC50", "setting": "DOHH-2", "value": 18.1, "unit": "nM"}, {"measurement": "IC50", "setting": "[3]", "value": 3730, "unit": "nM"}, {"measurement": "IC50", "setting": "SU-DHL-6", "value": 1630, "unit": "nM"}, {"measurement": "IC50", "setting": "[4]", "value": 395, "unit": "nM"}, {"measurement": "IC50", "setting": "PBMC", "value": "> 30000", "unit": "nM"}]}, {"smiles": "C#CC(=O)N1CCC[C@@H](n2nc(C#CCOc3ccccc3)c3c(N)ncnc32)C1", "values": [{"measurement": "inhibition", "setting": "[1]", "value": 102, "unit": "%"}, {"measurement": "IC50", "setting": "[2]", "value": 11.1, "unit": "nM"}, {"measurement": "IC50", "setting": "Ramos", "value": 9940, "unit": "nM"}, {"measurement": "IC50", "setting": "Raji", "value": 2370, "unit": "nM"}, {"measurement": "IC50", "setting": "DOHH-2", "value": 12.8, "unit": "nM"}, {"measurement": "IC50", "setting": "[3]", "value": 67.9, "unit": "nM"}, {"measurement": "IC50", "setting": "SU-DHL-6", "value": 26.6, "unit": "nM"}, {"measurement": "IC50", "setting": "[4]", "value": 14.1, "unit": "nM"}, {"measurement": "IC50", "setting": "PBMC", "value": 4120, "unit": "nM"}]}, {"smiles": "Nc1ncnc2c1c(C#CCOc1ccccc1)nn2[C@@H]1CCCN(C(=O)/C=C/Cn2cncn2)C1", "values": [{"measurement": "inhibition", "setting": "[1]", "value": 76.3, "unit": "%"}]}, {"smiles": "C=CS(=O)(=O)N1CCC[C@@H](n2nc(C#CCOc3ccccc3)c3c(N)ncnc32)C1", "values": [{"measurement": "inhibition", "setting": "[1]", "value": 104, "unit": "%"}, {"measurement": "IC50", "setting": "[2]", "value": 4.2, "unit": "nM"}, {"measurement": "IC50", "setting": "Ramos", "value": "> 40000", "unit": "nM"}, {"measurement": "IC50", "setting": "Raji", "value": "> 40000", "unit": "nM"}]}, {"smiles": "Nc1ncnc2c1c(C#CCOc1ccccc1)nn2[C@@H]1CCCN(C(=O)/C=C/CN2CCOCC2)C1", "values": [{"measurement": "inhibition", "setting": "[1]", "value": 86.1, "unit": "%"}]}]}
